# Measurements from patent publication US20200170291A1, “PROCESSES FOR PRODUCING LACTITOL GRANULATES AND GRANULATES PRODUCED THEREBY” (PARTICLE DYNAMICS INTERNATIONAL, LLC, priority 2017, published 2020).
# Like-named read-outs stand apart in the source and are kept apart here.
# Experiment: MALVERN MASTERSIZER 2000 particle size (d10, d50, d90)
# Format: physicochemical
# Method: All particle size (PS) analyses were conducted using a ROTAP Particle Size Analyzer and a MALVERN MASTERSIZER 2000, except as otherwise indicated. All particle size data were measured in microns and analyzed via the MALVERN MASTERSIZER 2000.
structure (smiles),measurement,setting,value
OC[C@@H](O)[C@@H](O[C@@H]1O[C@H](CO)[C@H](O)[C@H](O)[C@H]1O)[C@H](O)[C@@H](O)CO [Drum No. 20],PS d10,listed as 20,4.0 μ
same,PS d50,listed as 20,33.8 μ
same,PS d90,listed as 20,209.8 μ
same,Particle Size Span,listed as 20,6.1
OC[C@@H](O)[C@@H](O[C@@H]1O[C@H](CO)[C@H](O)[C@H](O)[C@H]1O)[C@H](O)[C@@H](O)CO [Drum No. 21],PS d10,listed as 21,5.0 μ
same,PS d50,listed as 21,50.8 μ
same,PS d90,listed as 21,290.2 μ
same,Particle Size Span,listed as 21,5.6
OC[C@@H](O)[C@@H](O[C@@H]1O[C@H](CO)[C@H](O)[C@H](O)[C@H]1O)[C@H](O)[C@@H](O)CO [Drum No. 22],PS d10,listed as 22,4.4 μ
same,PS d50,listed as 22,36.7 μ
same,PS d90,listed as 22,235.3 μ
same,Particle Size Span,listed as 22,6.3
OC[C@@H](O)[C@@H](O[C@@H]1O[C@H](CO)[C@H](O)[C@H](O)[C@H]1O)[C@H](O)[C@@H](O)CO [Drum No. 24],PS d10,listed as 24,5.4 μ
same,PS d50,listed as 24,53.1 μ
same,PS d90,listed as 24,289.0 μ
same,Particle Size Span,listed as 24,5.3
OC[C@@H](O)[C@@H](O[C@@H]1O[C@H](CO)[C@H](O)[C@H](O)[C@H]1O)[C@H](O)[C@@H](O)CO [Drum No. 25],PS d10,listed as 25,4.2 μ
same,PS d50,listed as 25,35.5 μ
same,PS d90,listed as 25,261.8 μ
same,Particle Size Span,listed as 25,7.3
OC[C@@H](O)[C@@H](O[C@@H]1O[C@H](CO)[C@H](O)[C@H](O)[C@H]1O)[C@H](O)[C@@H](O)CO [Drum No. 26],PS d10,listed as 26,4.4 μ
same,PS d50,listed as 26,40.8 μ
same,PS d90,listed as 26,298.4 μ
same,Particle Size Span,listed as 26,7.2
OC[C@@H](O)[C@@H](O[C@@H]1O[C@H](CO)[C@H](O)[C@H](O)[C@H]1O)[C@H](O)[C@@H](O)CO [Drum No. 27],PS d10,listed as 27,4.2 μ
same,PS d50,listed as 27,40.2 μ
same,PS d90,listed as 27,272.3 μ
same,Particle Size Span,listed as 27,'6.7
OC[C@@H](O)[C@@H](O[C@@H]1O[C@H](CO)[C@H](O)[C@H](O)[C@H]1O)[C@H](O)[C@@H](O)CO [Drum No. 28],PS d10,listed as 28,4.6 μ
same,PS d50,listed as 28,40.4 μ
same,PS d90,listed as 28,263.7 μ
same,Particle Size Span,listed as 28,6.4
OC[C@@H](O)[C@@H](O[C@@H]1O[C@H](CO)[C@H](O)[C@H](O)[C@H]1O)[C@H](O)[C@@H](O)CO [Drum No. 29],PS d10,listed as 29,5.7 μ
same,PS d50,listed as 29,84.8 μ
same,PS d90,listed as 29,401.6 μ
same,Particle Size Span,listed as 29,4.7
OC[C@@H](O)[C@@H](O[C@@H]1O[C@H](CO)[C@H](O)[C@H](O)[C@H]1O)[C@H](O)[C@@H](O)CO [Drum No. 33],PS d10,listed as 33,4.1 μ
same,PS d50,listed as 33,36.6 μ
same,PS d90,listed as 33,267.6 μ
same,Particle Size Span,listed as 33,7.2
OC[C@@H](O)[C@@H](O[C@@H]1O[C@H](CO)[C@H](O)[C@H](O)[C@H]1O)[C@H](O)[C@@H](O)CO [Drum No. 37],PS d10,listed as 37,4.4 μ
same,PS d50,listed as 37,43.9 μ
same,PS d90,listed as 37,337.2 μ
same,Particle Size Span,listed as 37,7.6
OC[C@@H](O)[C@@H](O[C@@H]1O[C@H](CO)[C@H](O)[C@H](O)[C@H]1O)[C@H](O)[C@@H](O)CO [Drum No. Last],PS d10,listed as Last,4.2 μ
same,PS d50,listed as Last,39.1 μ
same,PS d90,listed as Last,341.6 μ
same,Particle Size Span,listed as Last,8.6
OC[C@@H](O)[C@@H](O[C@@H]1O[C@H](CO)[C@H](O)[C@H](O)[C@H]1O)[C@H](O)[C@@H](O)CO [Proof of Concept],PS d10,,5.3 μ
same,PS d50,,60.0 μ
same,PS d90,,316.2 μ
same,Particle Size Span,,5.2
OC[C@@H](O)[C@@H](O[C@@H]1O[C@H](CO)[C@H](O)[C@H](O)[C@H]1O)[C@H](O)[C@@H](O)CO [Sample 1b],PS d10,,5.6 μ
same,PS d50,,56.7 μ
same,PS d90,,420.9 μ
same,Particle Size Span,,7.3
OC[C@@H](O)[C@@H](O[C@@H]1O[C@H](CO)[C@H](O)[C@H](O)[C@H]1O)[C@H](O)[C@@H](O)CO [Sample 2b],PS d10,,5.5 μ
same,PS d50,,56.5 μ
same,PS d90,,401.2 μ
same,Particle Size Span,,7.0
